Experimental data as given in patent US9980943B2, “Methods of treating muscular dystrophy” (BOARD OF REGENTS OF THE NEVADA SYSTEM OF HIGHER EDUCATION, …, priority 2013, dated 2018).

How the values were obtained:
Assay type in all cases: cell-based, mouse
[1] = test system: β-galactosidase in CMV-LacZ C2C12 myotubes; experiment: CMV-LacZ secondary screen in C2C12 myotubes (β-Gal stabilizing assay); details: C2C12 CMV-LacZ myotubes, fold relative to DMSO
Outline: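 A secondary screen identifies compounds that stabilize β-gal independently of the native promoter, using CMV-LacZ C2C12 cells. Curves span 0.5–40 μM at six levels, in duplicate.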

[2] = test system: α7 integrin (LacZ reporter in α7+/LacZ myotubes); experiment: Myotube α7 integrin FDG assay (Burkin assay in myotubes, 96-well); details: myotubes
[3] = test system: α7 integrin (LacZ reporter in α7βgal+/− myoblasts); experiment: Myoblast α7+/LacZ integrin FDG assay (Burkin assay in myoblasts, 96-well); details: α7+/LacZ myoblasts, 96-well
[4] = test system: β-galactosidase in CMV-LacZ C2C12 myoblasts; experiment: CMV-LacZ secondary screen in C2C12 myoblasts (β-Gal stabilizing assay); details: CMV-LacZ C2C12 myoblasts
Outline: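 C2C12 myoblasts stably carrying a linearized CMV-driven LacZ construct, clone chosen by β-gal level in the myoblast FDG assay. Compounds tested in 96-well dose-response at 0.5, 1, 5, 10, 20 and 40 μM, N=2 replicates per point, to detect β-gal stabilization.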

Compound | CMV-LACZ in Myotubes, signal relative to DMSO ([1]; 0.5 uM) | CMV-LACZ in Myotubes, signal relative to DMSO ([1]; 1 uM) | CMV-LACZ in Myotubes, signal relative to DMSO ([1]; 5 uM) | CMV-LACZ in Myotubes, signal relative to DMSO ([1]; 10 uM) | CMV-LACZ in Myotubes, signal relative to DMSO ([1]; 20 uM) | CMV-LACZ in Myotubes, signal relative to DMSO ([1]; 40 uM) | Burkin Assay in Myotubes, α7 integrin LacZ reporter signal relative to DMSO ([2]; 0.5 uM) | Burkin Assay in Myotubes, α7 integrin LacZ reporter signal relative to DMSO ([2]; 1 uM) | Burkin Assay in Myotubes, α7 integrin LacZ reporter signal relative to DMSO ([2]; 5 uM) | Burkin Assay in Myotubes, α7 integrin LacZ reporter signal relative to DMSO ([2]; 10 uM) | Burkin Assay in Myotubes, α7 integrin LacZ reporter signal relative to DMSO ([2]; 20 uM) | Burkin Assay in Myotubes, α7 integrin LacZ reporter signal relative to DMSO ([2]; 40 uM) | Burkin Assay in Myoblasts, signal relative to DMSO ([3]; 0.5 uM) | Burkin Assay in Myoblasts, signal relative to DMSO ([3]; 1 uM) | Burkin Assay in Myoblasts, signal relative to DMSO ([3]; 5 uM) | Burkin Assay in Myoblasts, signal relative to DMSO ([3]; 10 uM) | Burkin Assay in Myoblasts, signal relative to DMSO ([3]; 20 uM) | Burkin Assay in Myoblasts, signal relative to DMSO ([3]; 40 uM) | CMV-LACZ in Myoblasts (β-galactosidase activity relative to DMSO) ([4]; 0.5 uM) | CMV-LACZ in Myoblasts (β-galactosidase activity relative to DMSO) ([4]; 1 uM) | also measured
Fc1ccc(-c2ccnc3nc(N4CCN(c5ccccc5)CC4)nn23)cc1 [MLS000546316-01] | 1.2590 | 1.0019 | 1.0040 | 1.0825 | 1.0190 | 1.2640 | 1.137 | 1.174 | 1.066 | 1.099 | 0.8571 | 1.176 | 1.159 | 1.223 | 1.164 | 1.123 | 1.026 | 1.027 | 1.0623 | 1.1373 | CMV-LACZ in Myoblasts (β-galactosidase activity relative to DMSO) ([4]; 5 uM): 0.8090; CMV-LACZ in Myoblasts (β-galactosidase activity relative to DMSO) ([4]; 10 uM): 1.2440; CMV-LACZ in Myoblasts (β-galactosidase activity relative to DMSO) ([4]; 20 uM): 1.3463; CMV-LACZ in Myoblasts (β-galactosidase activity relative to DMSO) ([4]; 40 uM): 1.5049
Cc1cccc2c(N=Nc3ccc(S(=O)(=O)Nc4ccc(Cl)cc4)cc3[N+](=O)[O-])c(O)[nH]c12 [MLS000393762-01] | 0.8653 | 0.9326 | 1.0005 | 1.0049 | 1.0800 | 1.0578 | 0.9402 | 0.925 | 0.9795 | 1.007 | 0.7705 | 0.7046 | 0.9738 | 0.9428 | 0.7799 | 0.6957 | 0.5961 | 0.4696 | 0.9560 | 0.9351 | CMV-LACZ in Myoblasts (β-galactosidase activity relative to DMSO) ([4]; 5 uM): 1.0114; CMV-LACZ in Myoblasts (β-galactosidase activity relative to DMSO) ([4]; 10 uM): 1.0198; CMV-LACZ in Myoblasts (β-galactosidase activity relative to DMSO) ([4]; 20 uM): 0.3793; CMV-LACZ in Myoblasts (β-galactosidase activity relative to DMSO) ([4]; 40 uM): 0.4467
COc1ccc(CN2CCNC(=O)C2CC(=O)NCCc2c[nH]c3ccccc23)c(OC)c1 (stereo not drawn) [MLS000734270-01] | 1.0019 | 1.0038 | 1.1042 | 1.0885 | 1.1158 | 0.9095 | 0.941 | 0.8975 | 1.083 | 0.9081 | 0.8558 | 0.8102 | 1.0135 | 1.048 | 1.21 | 0.955 | 0.9739 | 0.9873 | 0.9296 | 0.8379 | CMV-LACZ in Myoblasts (β-galactosidase activity relative to DMSO) ([4]; 5 uM): 0.9337; CMV-LACZ in Myoblasts (β-galactosidase activity relative to DMSO) ([4]; 10 uM): 0.9468; CMV-LACZ in Myoblasts (β-galactosidase activity relative to DMSO) ([4]; 20 uM): 1.0122; CMV-LACZ in Myoblasts (β-galactosidase activity relative to DMSO) ([4]; 40 uM): 0.9548
CN(CC(=O)Nc1cccc(F)c1)C(=O)c1ccc(-c2ccc(Cl)cc2)o1 [MLS001078811-01] | 0.8486 | 0.9086 | 1.1571 | 0.9981 | 1.0510 | 0.6710 | 0.9163 | 0.9064 | 0.9816 | 0.8773 | 0.6307 | 0.4598 | 0.9376 | 0.9926 | 0.9583 | 0.891 | 1.681 | 0.7411 | 1.2397 | 1.2290 | CMV-LACZ in Myoblasts (β-galactosidase activity relative to DMSO) ([4]; 5 uM): 0.7927; CMV-LACZ in Myoblasts (β-galactosidase activity relative to DMSO) ([4]; 10 uM): 0.6873; CMV-LACZ in Myoblasts (β-galactosidase activity relative to DMSO) ([4]; 20 uM): 0.8393; CMV-LACZ in Myoblasts (β-galactosidase activity relative to DMSO) ([4]; 40 uM): 0.9014
O=C(NCCc1ccc(Cl)cc1)C1CCCO1 (stereo not drawn) [MLS001198271-01] | 0.9933 | 1.0686 | 0.9907 | 0.9957 | 1.1053 | 1.0053 | 1.0083 | 0.9334 | 1.113 | 0.9856 | 0.9056 | 0.8217 | 1.034 | 1 | 1.292 | 1.034 | 1.088 | 1.0038 | 1.0204 | 1.0883 | CMV-LACZ in Myoblasts (β-galactosidase activity relative to DMSO) ([4]; 5 uM): 1.2105; CMV-LACZ in Myoblasts (β-galactosidase activity relative to DMSO) ([4]; 10 uM): 0.8516; CMV-LACZ in Myoblasts (β-galactosidase activity relative to DMSO) ([4]; 20 uM): 0.9944; CMV-LACZ in Myoblasts (β-galactosidase activity relative to DMSO) ([4]; 40 uM): 1.2089
